# Assay results from patent US20210040062A1, “AZOLE-SUBSTITUTED PYRIDINE COMPOUND” (TAISHO PHARMACEUTICAL CO., LTD., priority 2016, published 2021).
# Columns and labels:
# human CYP4F2 = target: T1, human CYP4F2 (Homo sapiens, UniProt P78329); assay: CYP4F2 inhibition test (Test Example 1); type: biochemical; conditions: Escherichia coli membrane fraction expressing human CYP4F2, 2.5 μM luciferine derivative, room temperature 60 minutes, luminescence
# T1 construct: host or cells: Escherichia coli (membrane fraction)
# T1 sequence (P78329 5-520): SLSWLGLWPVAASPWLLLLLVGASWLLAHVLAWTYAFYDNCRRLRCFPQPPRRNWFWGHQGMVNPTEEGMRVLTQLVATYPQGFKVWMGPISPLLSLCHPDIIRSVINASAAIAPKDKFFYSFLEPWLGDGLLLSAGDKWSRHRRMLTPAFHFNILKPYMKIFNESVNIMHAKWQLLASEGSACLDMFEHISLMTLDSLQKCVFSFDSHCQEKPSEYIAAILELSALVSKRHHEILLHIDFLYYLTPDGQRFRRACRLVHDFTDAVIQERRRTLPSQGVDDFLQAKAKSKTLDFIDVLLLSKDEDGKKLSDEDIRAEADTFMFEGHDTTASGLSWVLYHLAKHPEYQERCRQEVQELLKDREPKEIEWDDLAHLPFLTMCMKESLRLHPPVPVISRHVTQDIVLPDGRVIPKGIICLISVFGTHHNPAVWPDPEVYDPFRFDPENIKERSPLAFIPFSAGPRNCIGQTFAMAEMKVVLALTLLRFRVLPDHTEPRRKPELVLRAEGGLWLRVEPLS
# Method: (§1) (1) Inhibition Test for Each Compound of the Present Invention Against 20-HETE Producing Enzymes (CYP4F2 and CYP4A11)
# (§2) In the CYP4F2 inhibition test, the reaction solution containing each compound [final concentration of 50 mM, KPO4 (pH 7.4), 2.5 μM, luciferine derivative and 1 mM NADPH] was added to an Escherichia coli membrane fraction (100 μg/mL, protein) in which human CYP4F2 had been expressed. In the CYP4A11 inhibition test, the reaction solution containing each compound [final concentration of 100 mM, Tris-HCl (pH 7.5), 60 μM, luciferine derivative, 1.3 mM NADP^+, 3.3 mM Glucose 6-Phosphate, 3.3 mM MgCl2 and 0.4 U/mL Glucose 6-Phosphate dehydrogenase] was added to an Escherichia coli membrane fraction (100 μg/mL, protein) in which human CYP4A11 had been expressed. Following this, the membrane fraction was left to stand at room temperature for 60 minutes to perform an enzymatic reaction. After the reaction, a luciferine detection reagent was added, and the luminescence value was measured using a plate reader.
# (§3) A: Luminescence value with addition of compound
# (§4) B: Luminescence value without addition of compound and enzyme
# (§5) C: Luminescence value without addition of compound
# human CYP4A11 = target: T2, human CYP4A11 (Homo sapiens, UniProt Q02928); assay: CYP4A11 inhibition test (Test Example 1); type: biochemical; conditions: Escherichia coli membrane fraction expressing human CYP4A11, 60 μM luciferine derivative, room temperature 60 minutes, luminescence
# T2 construct: host or cells: Escherichia coli (membrane fraction)
# T2 sequence (Q02928 5-519): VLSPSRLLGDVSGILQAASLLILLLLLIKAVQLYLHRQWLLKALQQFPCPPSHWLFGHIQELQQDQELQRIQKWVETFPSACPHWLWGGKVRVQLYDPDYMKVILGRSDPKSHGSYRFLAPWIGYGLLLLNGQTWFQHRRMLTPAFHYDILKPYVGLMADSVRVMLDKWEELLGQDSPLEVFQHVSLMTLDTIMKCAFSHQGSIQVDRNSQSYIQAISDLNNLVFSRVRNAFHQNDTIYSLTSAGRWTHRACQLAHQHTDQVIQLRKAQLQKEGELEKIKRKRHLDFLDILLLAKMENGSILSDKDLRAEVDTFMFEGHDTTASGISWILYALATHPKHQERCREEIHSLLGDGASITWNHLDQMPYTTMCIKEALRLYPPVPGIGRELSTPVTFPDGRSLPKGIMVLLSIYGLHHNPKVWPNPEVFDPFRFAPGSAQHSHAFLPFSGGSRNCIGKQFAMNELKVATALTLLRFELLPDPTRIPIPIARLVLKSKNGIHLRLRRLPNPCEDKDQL
# Method: as §1, §2, §3, §4, §5
SMILES,IC50 (human CYP4F2),IC50 (human CYP4A11)
"CC(C)OC(=O)N1CCC(CCOc2ccc(-c3ccn[nH]3)nc2)CC1 [Example 1-29, Propan-2-yl 4-(2-{[6-(1H-pyrazol-5-yl)pyridin-3-yl]oxy}ethyl)piperidin-1-carboxylate]",85 nM,190 nM
CC(C)COC(=O)N1CCC(CCOc2ccc(-c3ccn[nH]3)nc2)CC1 [Example 1-30],11 nM,110 nM
CC(C)OC(=O)NCCC(=O)N1CCC[C@@H](COc2ccc(-c3ccn[nH]3)nc2)C1 [Example 1-32],27 nM,67 nM
CCOC(=O)NCCC(=O)N1CCC[C@@H](COc2ccc(-c3ccn[nH]3)nc2)C1 [Example 1-33],54 nM,83 nM
COCCOC(=O)NCCC(=O)N1CCC[C@@H](COc2ccc(-c3ccn[nH]3)nc2)C1 [Example 1-34],79 nM,310 nM
CN(C)C(=O)NCCC(=O)N1CCC[C@@H](COc2ccc(-c3ccn[nH]3)nc2)C1 [Example 1-35],320 nM,890 nM
CC(=O)NCCC(=O)N1CCC[C@@H](COc2ccc(-c3ccn[nH]3)nc2)C1 [Example 1-36],680 nM,640 nM
O=C(NCCC(=O)N1CCC[C@@H](COc2ccc(-c3ccn[nH]3)nc2)C1)C1CC1 [Example 1-37],120 nM,160 nM
CCOC(=O)N[C@H]1C[C@H](C(=O)N2CCC[C@@H](COc3ccc(-c4ccn[nH]4)nc3)C2)C1 [Example 1-38],6.2 nM,180 nM
CCOC(=O)N[C@H]1C[C@@H](C(=O)N2CCC[C@@H](COc3ccc(-c4ccn[nH]4)nc3)C2)C1 [Example 1-39],11 nM,270 nM
"CC1(C(=O)N2CCC(COc3ccc(-c4ccn[nH]4)nc3)CC2)CC1 [Example 2-1, (1-Methylcyclopropyl) [4-({[6-(1H-pyrazol-5-yl)pyridin-3-yl]oxy}methyl)piperidin-1-yl]methanone]",830 nM,1100 nM
O=C(CC1CC1)N1CCC(COc2ccc(-c3ccn[nH]3)nc2)CC1 [Example 2-2],78 nM,930 nM
O=C(C1CCC1)N1CCC(COc2ccc(-c3ccn[nH]3)nc2)CC1 [Example 2-3],76 nM,360 nM
O=C(C1CC(F)(F)C1)N1CCC(COc2ccc(-c3ccn[nH]3)nc2)CC1 [Example 2-4],94 nM,1100 nM
CC1(C(=O)N2CCC(COc3ccc(-c4ccn[nH]4)nc3)CC2)COC1 [Example 2-5],810 nM,1600 nM
COCCC(=O)N1CCC(COc2ccc(-c3ccn[nH]3)nc2)CC1 [Example 2-6],290 nM,2900 nM
O=C([C@H]1CC[C@@H](O)CC1)N1CCC(COc2ccc(-c3ccn[nH]3)nc2)CC1 [Example 2-7],440 nM,5300 nM
O=C(C1CCOCC1)N1CCC(COc2ccc(-c3ccn[nH]3)nc2)CC1 [Example 2-8],290 nM,5700 nM
O=C(CCO)N1CCC(COc2ccc(-c3ccn[nH]3)nc2)CC1 [Example 2-9],440 nM,3800 nM
O=C(N1CCC(COc2ccc(-c3ccn[nH]3)nc2)CC1)C1(O)CC1 [Example 2-10],400 nM,1100 nM
"CN(CCC(=O)N1CCC[C@@H](COc2ccc(-c3ccn[nH]3)nc2)C1)C(=O)OC(C)(C)C [Example 2-11, tert-Butyl methyl {3-oxo-3-[(3R)-3-({[6-(1H-pyrazol-5-yl)pyridin-3-yl]oxy}methyl)piperidin-1-yl]propyl}carbamate]",9.5 nM,350 nM
C[C@H](CNC(=O)OC(C)(C)C)C(=O)N1CCC[C@@H](COc2ccc(-c3ccn[nH]3)nc2)C1 [Example 2-12],23 nM,540 nM
